Reference: PMC7845594, “Novel Immune Modulators Enhance Caenorhabditis elegans Resistance to Multiple Pathogens” (mSphere, 2021)
Where “and” joins values, the source holds several entries; their conditions need not be identical. Equal entries are not always repeated.

Tests used:
[1] = tested on: glp-4(bn2) worms exposed to E. faecalis strain OG1RF; experiment: E. faecalis infection assay (liquid); type: in vivo, Caenorhabditis elegans
Description: Enterococcus faecalis and Staphylococcus aureus are Gram-positive bacterial species frequently responsible for nosocomial infections ([24], [25]). These bacterial species readily infect C. elegans and liquid-based pathogenesis models have been developed for each ([26][–][28]). Sterile, young adult glp-4(bn2) worms were incubated with either E. faecalis or S. aureus and various concentrations of the five compounds. […] Importantly, P. aeruginosa, E. faecalis, and S. aureus use very different mechanisms to kill C. elegans (pyoverdine-mediated mitochondrial damage, gelatinase-mediated damage to the colonized intestine, and multi-toxin-mediated intestinal effacement and damage, respectively) ([29][–][33]). The ability of these compounds to rescue against multiple pathogens that utilize a diverse set of virulence factors and mechanisms of pathogenesis further supports the idea that at least a portion of these compounds’ activity is mediated by stimulating innate immunity.
FIG 2 A subset of LK molecules rescue against E. faecalis and S. aureus. […] Compounds were serially diluted 2-fold, and young adult glp-4(bn2) worms were incubated with the pathogen for 80 h (E. faecalis) or 96 h (S. aureus). The concentrations shown are based on the mean value for at least three replicates. (B and C) Percentages of dead C. elegans after exposure to E. faecalis (B) or S. aureus (C). A representative biological replicate is shown. Each condition included at least six wells per replicate, each well contained approximately 20 worms. Three biological replicates were performed. *, P < 0.05; **, P < 0.01; ***, P < 0.001. P values were calculated using Student’s t test. Error bars represent the standard error of the mean.
The E. faecalis infection assay was performed as previously described ([27]). A single colony was used to inoculate a 5 ml of BHI liquid culture. After 16 to 24 h, 400 µl of this culture was spread on a BHI agar plate and placed at 37°C for 24 h. Next, 384-well plates were made containing 10% BHI, and E. faecalis was removed from the plate by scraping and resuspended in S Basal medium to a final OD of 0.03. Compounds at the desired concentrations or DMSO (final concentration, 1%) were then added to each well. After 3 days, the worms were transferred to new plates using a 0.05% Tween solution to prevent background fluorescence from E. faecalis biofilm. Subsequent washing, staining, imaging, and image analysis was performed identically to Pseudomonas liquid killing. EC values were defined as the minimum concentration that provided statistically significant rescue. At least three biological replicates were performed.

glp-4(bn2) worms = experiment: Longevity (life span) assay; conditions: 50 μM in NGM, E. coli OP50, Fig 3A
Description: To test the long-term toxicity of the hit compounds, life span assays were carried out by placing sterile, young adult glp-4(bn2) worms on NGM (standard nematode growth media, defined in Materials and Methods) seeded with Escherichia coli OP50. […] Sterile worms were used to eliminate the need to transfer worms between plates during life span assays, and we elected to use glp-4(bn2) to induce sterility instead of using wild-type worms sterilized with 5-fluoro-2′-deoxyuridine (FUDR) because the interaction of the compounds could generate artifacts during the long course of life span experiments.
Worms were scored daily by prodding. […] The viability was normalized to a DMSO solvent control. […] Error bars represent standard error of the mean.
Worms were picked onto agar plates seeded with 50 µl of concentrated E. coli OP50. Compounds were added to liquid agar before pouring plates. Worms were scored every day for death by prodding with a platinum wire. Worms that escaped the plate or died on the wall of the plate were censored. Each compound was tested in at least three biological replicates, each including 50 to 70 worms.

[2] = tested on: C. elegans host defense pathway genes; experiment: nanoString expression of 115 immune- and stress-responsive genes; conditions: 100 μM LK molecules, 16 h
In short: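 Wild-type young adult C. elegans (2,000 per condition) exposed to 100 μM LK molecules or DMSO control in S Basal medium for 16 h. RNA purified and expression of 115 immune- and stress-responsive genes quantified by nanoString; two biological replicates per condition.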

For `O=c1cc(CNc2ccc(Br)cc2)nc2sccn12` [LK56], the “Need of MDT-15 for rescue (mdt-15(RNAi))” value ([1]; E. faecalis, 32 µM) was “required”, the “E. faecalis EC” value ([1]; glp-4(bn2) worms, 80 h, ± 95% confidence interval) was 10.7 µM and 10.7 ± 3.3 µM and the “TD50 (time to 50% death), life span” value (glp-4(bn2) worms) was 7.8 days. The “B0024.4 expression, induction” value [2] was 2.13 fold, the “C02B4.2 nhr-17 expression, induction” value [2] was 1.97 fold and the “C06B3.7 expression, induction” value [2] was 1.14 fold. For the same molecule, the “C07G3.2 irg-1 expression, induction” value [2] was 1.40 fold, the “C12C8.1 hsp-70 expression, induction” value [2] was 1.04 fold and the “C15F1.7 sod-1 expression, induction” value [2] was 2.09 fold. For the same molecule, the “C29F7.2 expression, induction” value [2] was 14.61 fold, the “C31A11.5 oac-6 expression, induction” value [2] was 2.72 fold and the “C32D5.12 expression, induction” value [2] was 1.17 fold. The “C32H11.1 expression, induction” value [2] was 8.05 fold, the “C32H11.3 expression, induction” value [2] was 1.05 fold and the “C34G6.4 pgp-2 expression, induction” value [2] was 1.72 fold. The “C37C3.10 expression, induction” value [2] was 3.56 fold, the “C37H5.8 hsp-6 expression, induction” value [2] was 1.45 fold and the “C49G7.5 irg-2 expression, induction” value [2] was 2.13 fold. For the same molecule, the “F08F8.5 numr-1 expression, induction” value [2] was 3.14 fold, the “F08H9.4 expression, induction” value [2] was 1.04 fold and the “F14F9.3 expression, induction” value [2] was 1.84 fold. The “F22B5.4 expression, induction” value [2] was 2.10 fold, the “F22H10.2 expression, induction” value [2] was 1.87 fold and the “F26A3.4 expression, induction” value [2] was 1.98 fold. The “F35E8.11 cdr-1 expression, induction” value [2] was 47.99 fold, the “F35G2.4 phy-2 expression, induction” value [2] was 1.43 fold and the “F37B12.2 gcs-1 expression, induction” value [2] was 1.20 fold. The “F43E2.8 hsp-4 expression, induction” value [2] was 1.17 fold, the “F44E5.5 expression, induction” value [2] was 1.42 fold and the “F49F1.6 expression, induction” value [2] was 1.76 fold. The “F49F1.7 expression, induction” value [2] was 4.06 fold, the “F49H6.13 expression, induction” value [2] was 1.42 fold and the “F54B8.4 expression, induction” value [2] was 3.28 fold. The “F55G11.2 expression, induction” value [2] was 2.09 fold, the “F59A7.1 clec-206 expression, induction” value [2] was 12.55 fold and the “F59B10.4 expression, induction” value [2] was 1.53 fold. For the same molecule, the “H12D21.1 nspa-1 expression, induction” value [2] was 2.13 fold, the “H23N18.1 ugt-13 expression, induction” value [2] was 4.36 fold and the “H23N18.3 ugt-8 expression, induction” value [2] was 20.66 fold. The “K05B2.4 expression, induction” value [2] was 2.91 fold, the “K08F4.7 gst-4 expression, induction” value [2] was 1.69 fold and the “K09A9.1 nipi-3 expression, induction” value [2] was 2.25 fold. The “K10D11.2 expression, induction” value [2] was 1.72 fold, the “K10G4.3 expression, induction” value [2] was 1.36 fold and the “R03D7.6 gst-5 expression, induction” value [2] was 23.60 fold. For the same molecule, the “R08H2.1 dhs-23 expression, induction” value [2] was 182.18 fold, the “R10E8.3 expression, induction” value [2] was 1.01 fold and the “T19D12.3 expression, induction” value [2] was 2.00 fold. The “T19H12.1 ugt-9 expression, induction” value [2] was 6.54 fold, the “T21E8.1 pgp-6 expression, induction” value [2] was 0.89 fold and the “T22B7.3 expression, induction” value [2] was 1.38 fold. For the same molecule, the “T24C4.4 expression, induction” value [2] was 1.93 fold, the “T24E12.5 expression, induction” value [2] was 2.19 fold and the “T27E4.3 hsp-16.48 expression, induction” value [2] was 1.38 fold. For the same molecule, the “T27E4.8 hsp-16.1 expression, induction” value [2] was 1.30 fold, the “T27F6.8 expression, induction” value [2] was 2.98 fold and the “T28C12.4 expression, induction” value [2] was 7.67 fold. For the same molecule, the “W02D9.10 expression, induction” value [2] was 2.27 fold, the “Y22D7AL.5 hsp-60 expression, induction” value [2] was 1.56 fold and the “Y38E10A.15 nspe-7 expression, induction” value [2] was 0.87 fold. For the same molecule, the “Y46H3A.2 hsp-16.41 expression, induction” value [2] was 1.11 fold, the “Y46H3A.3 hsp-16.2 expression, induction” value [2] was 1.21 fold and the “Y56A3A.33 expression, induction” value [2] was 2.67 fold. For the same molecule, the “Y58A7A.5 expression, induction” value [2] was 1.53 fold, the “ZC376.7 atfs-1 expression, induction” value [2] was 1.86 fold and the “ZC443.6 ugt-16 expression, induction” value [2] was 27.68 fold. For the same molecule, the “ZK697.6 gst-21 expression, induction” value [2] was 8.40 fold.
